{"source": "patent US7776558B2", "about": "“Human G protein-coupled receptor and modulators thereof for the treatment of cell death-related disorders” (Arena Pharmaceuticals, Inc., priority 2003, dated 2010)", "key": {"[1]": {"test_system": "serum-deprived differentiated SH-SY5Y cells", "experiment": "Cell death of serum-deprived differentiated SH-SY5Y cells", "type": "cell-based, human", "details": "serum-free medium 6 days; LDH assay (panel A) or Trypan Blue staining (panel B); FIG. 10", "method": "Briefly, SH-SY5Y cells were differentiated into neuronal-like cells by treatment with retinoic acid (10 μM) for five days followed by treatment with BDNF (10 ng/ml) for two days. […] Cell viability was determined by lactate dehydrogenase (LDH) assay (Roche, Indianapolis, Ind.; catalog no. 1644793) or by trypan blue staining. LDH is a stable cytoplasmic enzyme present in all cells which is rapidly released upon damage to the plasma membrane. The level of LDH is inversely proportional to the number of viable cells. The LDH assay was carried out as per manufacturer's instructions."}, "[2]": {"test_system": "primary mouse cortical neurons", "experiment": "22C11 (anti-APP antibody)-induced cell death of primary mouse cortical neurons", "type": "cell-based", "details": "added 1 h prior to mAb 22C11; overnight (~18 h); LDH assay; FIG. 11B", "from_the_text": "22C11 is a monoclonal antibody (mAb) which binds to the extracellular domain of the human, rat or mouse β-amyloid precursor protein (APP) (Boehringer Mannheim; Indianapolis, Ind.).\nThe assay was set up essentially as described by Rohn et al. [Neurochem (2000) 74:2331-2342]. Briefly, the primary cultures of mouse cortical neurons were established from E17 embryos. The gestational pups were humanely decapitated, and the brain was harvested into Hanks Buffered Salt Solution (HBSS) buffer. The cortices were taken and processed with trypsin (0.05% in HBSS), after which the cells were mechanically dissociated using a 21 g needle. The cell suspension was then passed through a […] filter, and the recovered cells plated on poly-D-lysine-treated 12-well plates. After five days of culture, the cells were used for assay.\nFor the assay, four experimental groups were set up. […] In the “22C11” group, cells were cultured in the presence of mAb 22C11 alone. […] The assay was allowed to proceed overnight (˜18 h), after which cell viability was determined by LDH assay as described in Example 25."}, "FPRL2": {"target": "T1, FPRL2 (Homo sapiens, UniProt P25089)", "T1 sequence (P25089 1-353)": "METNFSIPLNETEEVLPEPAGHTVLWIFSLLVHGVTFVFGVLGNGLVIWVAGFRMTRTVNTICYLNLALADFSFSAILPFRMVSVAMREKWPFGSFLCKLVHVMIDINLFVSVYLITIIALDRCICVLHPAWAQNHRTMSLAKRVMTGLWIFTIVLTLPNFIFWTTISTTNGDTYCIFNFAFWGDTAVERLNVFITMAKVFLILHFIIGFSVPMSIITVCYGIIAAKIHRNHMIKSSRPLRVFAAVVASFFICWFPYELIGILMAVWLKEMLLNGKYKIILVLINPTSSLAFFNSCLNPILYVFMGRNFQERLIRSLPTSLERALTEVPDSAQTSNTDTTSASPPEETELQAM", "experiment": "Pertussis toxin sensitivity of signaling, adenylate cyclase assay in HEK293 cells", "type": "cell-based", "design": "expressed in transfected cells", "details": "pre-treated 18 to 20 hrs with 50 ng/ml pertussis toxin; 5 μM forskolin; FIG. 7", "method": "The pertussis toxin sensitivity of Compound 1 signalling through human FPRL2 was determined similarly.\nSamples were then assessed for cAMP levels as described in Example 4, supra."}, "FPRL1": {"target": "T2, FPRL1 (Homo sapiens, UniProt P25090)", "T2 sequence (P25090 1-351)": "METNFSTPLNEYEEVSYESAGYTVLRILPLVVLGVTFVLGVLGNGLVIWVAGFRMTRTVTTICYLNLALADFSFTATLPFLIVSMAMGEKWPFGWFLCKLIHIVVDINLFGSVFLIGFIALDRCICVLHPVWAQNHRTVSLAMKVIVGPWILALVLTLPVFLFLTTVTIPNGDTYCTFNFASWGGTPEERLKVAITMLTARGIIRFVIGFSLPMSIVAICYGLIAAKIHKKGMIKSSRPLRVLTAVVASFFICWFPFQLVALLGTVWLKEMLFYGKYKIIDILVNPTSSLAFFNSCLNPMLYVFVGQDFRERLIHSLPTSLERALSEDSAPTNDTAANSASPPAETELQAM", "experiment": "Whole cell adenylate cyclase (cAMP) assay, stably transfected HEK293 cells", "type": "cell-based", "details": "in the presence of 5 μM forskolin, FIG. 6", "from_the_text": "A Flash Plate™ Adenylyl Cyclase kit (New England Nuclear; Cat. No. SMP004A) designed for cell-based assays can be modified for use with crude plasma membranes. The Flash Plate wells can contain a scintillant coating which also contains a specific antibody recognizing cAMP. The cAMP generated in the wells can be quantitated by a direct competition for binding of radioactive cAMP tracer to the cAMP antibody. The following serves as a brief protocol for the measurement of changes in cAMP levels in whole cells that express the receptors.\nTransfected cells are harvested approximately twenty four hours after transient transfection. Media is carefully aspirated off and discarded. 10 ml of PBS is gently added to each dish of cells followed by careful aspiration. 1 ml of Sigma cell dissociation buffer and 3 ml of PBS are added to each plate. Cells are pipetted off the plate and the cell suspension is collected into a 50 ml conical centrifuge tube. Cells are then centrifuged at room temperature at 1,100 rpm for 5 min. The cell pellet is carefully re-suspended into an appropriate volume of PBS (about 3 ml/plate). The cells are then counted using a hemocytometer and additional PBS is added to give the appropriate number of cells (with a final volume of about 50 μl/well). […]\nIn FIG. 6, agonist activity was determined through adenylate cyclase activity. […] Samples were then assessed for the level of intracellular cAMP as described in Example 4, supra."}, "neuronal cells": {"test_system": "neuronal cells", "details": "cited from earlier work"}}, "note": "Entries after “also recorded” stand apart in the source; their conditions may differ. Where no end group is shown, it is not given here.", "data": [{"molecule": "CC(C)c1ccc2c(c1)CCC1C(C)(C(N)=O)CCCC21C", "note": "(stereo not shown) [Compound 1, 7-Isopropyl-1,4a-dimethyl-1,2,3,4,4a,9,10,10a-octahydro-phenanthrene-1-carboxylic acid amide]", "values": [{"measurement": "Inhibition of cell death of serum-deprived SH-SY5Y cells", "setting": "[1]", "value": "inhibit cell death"}, {"measurement": "Protection from cell death induced by anti-APP mAb 22C11", "setting": "[2]", "value": "protect primary mouse cortical neurons from cell death"}, {"measurement": "Pertussis toxin sensitivity of the inhibition of cAMP through FPRL2", "setting": "FPRL2", "value": "pertussis sensitive"}]}, {"molecule": "CC[C@H](C)[C@H](NC(=O)[C@H](CCC(=O)O)NC(=O)[C@H](CO)NC(=O)[C@@H](NC(=O)[C@H](CC(C)C)NC(=O)[C@H](CC(C)C)NC(=O)[C@H](CC(C)C)NC(=O)[C@H](CC(C)C)NC(=O)[C@H](CS)NC(=O)[C@H](CO)NC(=O)[C@H](Cc1ccccc1)NC(=O)CNC(=O)[C@H](CCCNC(=N)N)NC(=O)[C@@H]1CCCN1C(=O)[C@H](C)NC(=O)[C@@H](N)CCSC)[C@@H](C)O)C(=O)N[C@@H](CC(=O)O)C(=O)N[C@@H](CC(C)C)C(=O)N1CCC[C@H]1C(=O)N[C@H](C(=O)N[C@@H](CCCCN)C(=O)N[C@@H](CCCNC(=N)N)C(=O)N[C@@H](CCCNC(=N)N)C(=O)N[C@@H](C)C(=O)O)C(C)C", "note": "[Humanin]", "values": [{"measurement": "Agonist activity at FPRL1, intracellular cAMP", "setting": "FPRL1", "value": "agonists of both FPRL1 and FPRL2"}, {"measurement": "Agonist activity at FPRL1, intracellular cAMP", "setting": "FPRL1; listed as Human", "value": "agonists of both FPRL2 and FPRL1"}, {"measurement": "Inhibition of cell death of serum-deprived SH-SY5Y cells", "setting": "[1]", "value": "inhibit cell death"}, {"measurement": "Protection from cell death induced by anti-APP mAb 22C11", "setting": "[2]", "value": "protect primary mouse cortical neurons from cell death"}, {"measurement": "Protection of neuronal cells from toxic insults", "setting": "neuronal cells; Alzheimer's disease-relevant toxicity, three mutant FAD genes and Aβ", "value": "protect neuronal cells from Alzheimer's disease-relevant toxicity; also recorded: protect neuronal cells from a number of toxic insults"}, {"measurement": "Rescue of cortical neurons from prion-peptide-induced apoptosis", "setting": "neuronal cells; Sponne et al. 2004", "value": "rescue cortical neurons from prion-peptide-induced apoptosis"}, {"measurement": "Protective activity for neurons against serum deprivation", "setting": "neuronal cells; Takahashi et al. 2002", "value": "protective activity for neurons against serum deprivation"}, {"measurement": "Pertussis toxin sensitivity of the inhibition of cAMP through FPRL2", "setting": "FPRL2", "value": "pertussis sensitive"}]}, {"molecule": "MAPRGFSCLLLLTGEIDLPVKRRA [[Gly14]-Humanin]", "values": [{"measurement": "Agonist activity at FPRL1, intracellular cAMP", "setting": "FPRL1", "value": "agonists of both FPRL1 and FPRL2; also recorded: agonists of both FPRL2 and FPRL1"}, {"measurement": "Activity relative to Humanin", "setting": "neuronal cells; Niikura et al. 2002", "value": "significantly more active than Humanin"}]}]}
